According to patent US6355799B1, “Substituted benzene compounds, process for their preparation, and herbicidal and defoliant compositions containing them” (ISK Americas Incorporated, priority 1997, dated 2002):

Experiments:
Assay type in all cases: in vivo
[1] = tested on: upland rice (Oryza sp., var. Tebonnet, RICE); experiment: Pre-emerge test, crop safety; conditions: rating scale 0-100, 14 days after application
Method in brief: (§1)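 Compounds in acetone were track-sprayed at 187 l/ha, 15–1000 g ai/ha, onto sandy loam pots. Pre-emerge seeds were sown one day before spraying, with surface watering afterwards. Post-emerge plants were at the 2–3 leaf stage and sprayed with 0.25% v/v non-ionic surfactant. Injury was rated 0–100 at 14 days.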

[2] = tested on: field corn (Zea mays L., var. Dekalb 535, CORN); experiment: Pre-emerge test, crop safety; conditions: rating scale 0-100, 14 days after application
Method in brief: as §1

[3] = tested on: redroot pigweed (Amaranthus retroflexus, AMARE); experiment: Post-emerge test, greenhouse herbicide activity screening; conditions: post-emerge, phytotoxicity rating 0-100 at 14 days after application
Method in brief: (§2)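 Applied at 15–1000 g ai/ha from acetone in 187 l/ha spray volume. Post-emergence applications included 0.25% v/v non-ionic surfactant and reached plants sown 8–21 days before. Pre-emergence applications were incorporated by surface watering. Efficacy or crop damage was rated on a 0–100 scale after 14 days.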

[4] = tested on: large crabgrass (Digitaria sanguinalis, DIGSA); experiment: as above; conditions: post-emerge, phytotoxicity rating 0-100 at 14 days after application
Method in brief: as §2

[5] = tested on: lambsquarters (Chenopodium album, CHEAL); experiment: as above; conditions: post-emerge, phytotoxicity rating 0-100 at 14 days after application
Method in brief: as §2

[6] = tested on: ivyleaf morningglory (Ipomoea hederacea, IPOHE); experiment: as above; conditions: post-emerge, phytotoxicity rating 0-100 at 14 days after application
Method in brief: as §2

[7] = tested on: johnsongrass (Sorghum halepense, SORHA); experiment: as above; conditions: post-emerge, phytotoxicity rating 0-100 at 14 days after application
Method in brief: as §2

[8] = tested on: sicklepod (Cassia obtusifolia, CASOB); experiment: as above; conditions: post-emerge, phytotoxicity rating 0-100 at 14 days after application
Method in brief: as §2

[9] = tested on: green foxtail (Setaria viridis, SETVI); experiment: as above; conditions: post-emerge, phytotoxicity rating 0-100 at 14 days after application
Method in brief: as §2

[10] = tested on: velvetleaf (Abutilon theophrasti, ABUTH); experiment: as above; conditions: post-emerge, phytotoxicity rating 0-100 at 14 days after application
Method in brief: as §2

[11] = tested on: barnyardgrass (Echinochloa crus-galli, ECHCG); experiment: as above; conditions: post-emerge, phytotoxicity rating 0-100 at 14 days after application
Method in brief: as §2

[12] = tested on: large crabgrass (Digitaria sanguinalis, DIGSA); experiment: Pre-emerge test, greenhouse herbicide activity screening; conditions: rating scale 0-100, 14 days after application
Method in brief: (§3)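 Herbicidal damage is scored 0 (none) to 100 (complete plant death) two weeks after a simulated field spray. Rates span 15–1000 g ai/ha, delivered in acetone at 187 l/ha. For post-emergence treatments, plants have 2–3 leaves and the spray carries 0.25% v/v non-ionic surfactant.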

[13] = tested on: lambsquarters (Chenopodium album, CHEAL); experiment: as above; conditions: rating scale 0-100, 14 days after application
Method in brief: as §3

[14] = tested on: ivyleaf morningglory (Ipomoea hederacea, IPOHE); experiment: as above; conditions: rating scale 0-100, 14 days after application
Method in brief: as §3

[15] = tested on: johnsongrass (Sorghum halepense, SORHA); experiment: as above; conditions: rating scale 0-100, 14 days after application
Method in brief: as §3

[16] = tested on: sicklepod (Cassia obtusifolia, CASOB); experiment: as above; conditions: rating scale 0-100, 14 days after application
Method in brief: as §3

[17] = tested on: green foxtail (Setaria viridis, SETVI); experiment: as above; conditions: rating scale 0-100, 14 days after application
Method in brief: as §3

[18] = tested on: velvetleaf (Abutilon theophrasti, ABUTH); experiment: as above; conditions: rating scale 0-100, 14 days after application
Method in brief: as §3

[19] = tested on: barnyardgrass (Echinochloa crus-galli, ECHCG); experiment: as above; conditions: rating scale 0-100, 14 days after application
Method in brief: as §3

[20] = tested on: upland rice (Oryza sp., var. Tebonnet, RICE); experiment: Post-emerge test, crop safety; conditions: post-emerge, crop damage rating 0-100 at 14 days after application
Method in brief: as §3

[21] = tested on: field corn (Zea mays L., var. Dekalb 535, CORN); experiment: Post-emerge test, crop safety; conditions: post-emerge, crop damage rating 0-100 at 14 days after application
Method in brief: as §3

[22] = tested on: redroot pigweed (Amaranthus retroflexus, AMARE); experiment: Pre-emerge test, greenhouse herbicide activity screening; conditions: rating scale 0-100, 14 days after application
Method in brief: as §3

For O=C(Nc1cc(Cl)ccc1N1C(=O)C2CCCCN2C1=O)c1ccc2ccccc2c1 (centres unmarked) [12-8], the “Pre-emerge phytotoxicity rating, crop damage RICE” value ([1]; 63 g ai/ha) was 30, the “Pre-emerge phytotoxicity rating, crop damage RICE” value ([1]; 250 g ai/ha) was 40 and the “Pre-emerge phytotoxicity rating, crop damage CORN” value ([2]; 63 g ai/ha) was 0. The “Pre-emerge phytotoxicity rating, crop damage CORN” value ([2]; 250 g ai/ha) was 0, the “Post-emerge Herbicidal Activity AMARE” value ([3]; 63 g ai/ha) was 80 and the “Post-emerge Herbicidal Activity AMARE” value ([3]; 250 g ai/ha) was 90. For the same compound, the “Post-emerge Herbicidal Activity DIGSA” value ([4]; 63 g ai/ha) was 10, the “Post-emerge Herbicidal Activity DIGSA” value ([4]; 250 g ai/ha) was 0 and the “Post-emerge Herbicidal Activity CHEAL” value ([5]; 63 g ai/ha) was 95. The “Post-emerge Herbicidal Activity CHEAL” value ([5]; 250 g ai/ha) was 99, the “Post-emerge Herbicidal Activity IPOHE” value ([6]; 63 g ai/ha) was 90 and the “Post-emerge Herbicidal Activity IPOHE” value ([6]; 250 g ai/ha) was 80. For the same compound, the “Post-emerge Herbicidal Activity SORHA” value ([7]; 63 g ai/ha) was 0, the “Post-emerge Herbicidal Activity SORHA” value ([7]; 250 g ai/ha) was 10 and the “Post-emerge Herbicidal Activity CASOB” value ([8]; 63 g ai/ha) was 50. For the same compound, the “Post-emerge Herbicidal Activity CASOB” value ([8]; 250 g ai/ha) was 70, the “Post-emerge Herbicidal Activity SETVI” value ([9]; 63 g ai/ha) was 20 and the “Post-emerge Herbicidal Activity SETVI” value ([9]; 250 g ai/ha) was 25. The “Post-emerge Herbicidal Activity ABUTH” value ([10]; 63 g ai/ha) was 100, the “Post-emerge Herbicidal Activity ABUTH” value ([10]; 250 g ai/ha) was 100 and the “Post-emerge Herbicidal Activity ECHCG” value ([11]; 63 g ai/ha) was 10. For the same compound, the “Post-emerge Herbicidal Activity ECHCG” value ([11]; 250 g ai/ha) was 10, the “Pre-emerge herbicidal activity, phytotoxicity rating DIGSA” value ([12]; 63 g ai/ha) was 50 and the “Pre-emerge herbicidal activity, phytotoxicity rating DIGSA” value ([12]; 250 g ai/ha) was 100. For the same compound, the “Pre-emerge herbicidal activity, phytotoxicity rating CHEAL” value ([13]; 63 g ai/ha) was 100, the “Pre-emerge herbicidal activity, phytotoxicity rating CHEAL” value ([13]; 250 g ai/ha) was 100 and the “Pre-emerge herbicidal activity, phytotoxicity rating IPOHE” value ([14]; 63 g ai/ha) was 0. For the same compound, the “Pre-emerge herbicidal activity, phytotoxicity rating IPOHE” value ([14]; 250 g ai/ha) was 40, the “Pre-emerge herbicidal activity, phytotoxicity rating SORHA” value ([15]; 63 g ai/ha) was 10 and the “Pre-emerge herbicidal activity, phytotoxicity rating SORHA” value ([15]; 250 g ai/ha) was 40. The “Pre-emerge herbicidal activity, phytotoxicity rating CASOB” value ([16]; 63 g ai/ha) was 0, the “Pre-emerge herbicidal activity, phytotoxicity rating CASOB” value ([16]; 250 g ai/ha) was 20 and the “Pre-emerge herbicidal activity, phytotoxicity rating SETVI” value ([17]; 63 g ai/ha) was 60. The “Pre-emerge herbicidal activity, phytotoxicity rating SETVI” value ([17]; 250 g ai/ha) was 100, the “Pre-emerge herbicidal activity, phytotoxicity rating ABUTH” value ([18]; 63 g ai/ha) was 0 and the “Pre-emerge herbicidal activity, phytotoxicity rating ABUTH” value ([18]; 250 g ai/ha) was 100. The “Pre-emerge herbicidal activity, phytotoxicity rating ECHCG” value ([19]; 63 g ai/ha) was 0, the “Pre-emerge herbicidal activity, phytotoxicity rating ECHCG” value ([19]; 250 g ai/ha) was 40 and the “Post-emerge Herbicidal Activity RICE” value ([20]; 63 g ai/ha) was 20. The “Post-emerge Herbicidal Activity RICE” value ([20]; 250 g ai/ha) was 15, the “Post-emerge Herbicidal Activity CORN” value ([21]; 63 g ai/ha) was 5 and the “Post-emerge Herbicidal Activity CORN” value ([21]; 250 g ai/ha) was 10. For the same compound, the “Pre-emerge herbicidal activity, phytotoxicity rating AMARE” value ([22]; 63 g ai/ha) was 100 and the “Pre-emerge herbicidal activity, phytotoxicity rating AMARE” value ([22]; 250 g ai/ha) was 100.
